Assays:
[1] = biological target: T1, transcription factor binding to CRE (ATF2 containing complex II) (Homo sapiens, UniProt P15336); experiment: EMSA, agents added directly to binding reaction; conditions: for transcription factor binding to CRE: DTT 2.5 mM; for transcription factor binding to CRE, effect with GSH instead of DTT: GSH 3.0 mM as reducing agent
T1 construct: endogenous in cells; host or cells: M1619 human melanoma cells, crude nuclear protein extract
T1 sequence (P15336 1-505): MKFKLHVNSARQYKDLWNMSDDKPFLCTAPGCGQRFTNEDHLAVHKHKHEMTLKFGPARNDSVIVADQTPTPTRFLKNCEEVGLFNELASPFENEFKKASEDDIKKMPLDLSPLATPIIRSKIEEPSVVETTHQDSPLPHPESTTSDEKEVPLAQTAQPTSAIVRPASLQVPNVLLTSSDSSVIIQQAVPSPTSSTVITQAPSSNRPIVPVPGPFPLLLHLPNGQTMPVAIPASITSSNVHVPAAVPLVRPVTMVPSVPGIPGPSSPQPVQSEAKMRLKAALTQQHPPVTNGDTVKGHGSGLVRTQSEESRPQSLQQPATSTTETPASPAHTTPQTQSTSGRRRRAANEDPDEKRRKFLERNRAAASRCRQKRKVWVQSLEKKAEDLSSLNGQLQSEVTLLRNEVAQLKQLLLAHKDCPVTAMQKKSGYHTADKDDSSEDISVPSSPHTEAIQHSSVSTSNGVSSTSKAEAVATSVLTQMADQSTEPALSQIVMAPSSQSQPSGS
Experimental: This dose was chosen to approximate the steady state plasma and tissue concentrations of drug in human subjects on chronic therapy with this agent. Disulfiram was solubilized in dimethylsulfoxide (DMSO) so that the final concentration of DMSO was less than 0.3-0.5%. Equal volumes of DMSO were added to control experiments. Nuclear protein was harvested and electrophoretic mobility gel shift assays were performed using DNA consensus binding sequence for the cyclic-AMP responsive element (CRE) as outlined below. […] EMSAs were performed using consensus oligonucleotides ([NT] and 3'-[NT]5') for the cyclic-AMP responsive element CRE (ProMega, Madison, Wis.), end-labeled by phosphorylation with [γ^32P]-ATP and T4 polynucleotide kinase. DNA-protein binding reactions were performed with 2 μg of nuclear protein (as determined by the Pierce method) and 30-80,000 cpm of ^32P-end-labelled double-stranded DNA probe in 10 mM Tris-HCl, pH 7.5, 50 mM NaCl, 0.5 mM EDTA, 0.5 mM DTT (except where indicated), 1 mM MgCl2, 50 μg/ml poly dI-dC, and 4% glycerol. All components of the binding reaction with the exception of labeled probe were combined and incubated at room temperature for 10 minutes before addition of labeled probe and incubation for an additional 20 minutes. To determine if inhibition of transcription factor binding to CRE could be attributed to direct transcription factor modification by disulfiram and copper, we studied the effect of adding each agent directly to the binding reaction performed with nuclear protein from untreated […] cells. Therein electrophoretic mobility shift assays (EMSAs) were performed showing that addition of disulfiram plus copper to the binding reaction reduces DNA binding to CRE. […] In lanes 1-5, DTT (2.5 mM) was added to the binding reaction as a reducing agent, whereas in lane 6-9, GSH (3.0 mM) was used.

AP-1 = experiment: EMSA of treated cells, AP-1 DNA binding; type: cell-based, human; conditions: disulfiram plus copper; 24 hours; data not shown
Experimental: Nuclear protein was isolated and DNA binding reactions were performed as previously described in detail (See, […], et al., “Dehydroepiandrosterone and analogs inhibit DNA binding of AP-1 and airway smooth muscle proliferation,” J. Pharmacol. Exper. Ther. 285:[…] (1998); T. Kennedy, et al., “Copper-dependent inflammation and nuclear factor-κB activation by particulate air pollution,” Am. J. Respir. Cell Mol. Biol. 19:366-378 (1998)). Monolayers were washed twice in cold DPBS and equilibrated 10 minutes on ice with 0.7 ml cold cytoplasmic extraction buffer, CEB (10 mM Tris, pH 7.9, 60 mM KCl, 1 mM EDTA, 1 mM DTT) with protease inhibitors, PI (1 mM Pefabloc, 50 μg/ml antipain, 1 μg/ml leupeptin, 1 μg/ml pepstatin, 40 μg/ml bestatin, 3 μg/ml E-64 and 100 μg/ml chymostatin). The detergent Nonidet P-40 (NP-40) was added to a final concentration of 0.1% and cells were dislodged with a cell scraper. Nuclei were pelleted by centrifugation and washed with CEB/PI. […]

transcription factor binding to CRE ([1]; disulfiram 5 μM alone added to binding reaction): reduced
transcription factor binding to CRE, effect with GSH instead of DTT ([1]; disulfiram 5 μM alone): more pronounced
transcription factor binding to CRE, effect with GSH instead of DTT ([1]; disulfiram 5 μM and 1.6 μM CuSO4): more pronounced
transcription factor binding to CRE ([1]; disulfiram 5 μM and 1.6 μM CuSO4 added to binding reaction): reduced
Compound: CCN(CC)C(=S)SSC(=S)N(CC)CC [Disulfiram, tetraethylthiuram disulfide]
DNA binding of AP-1 (AP-1): inhibited

Source: patent US6548540B2, “Method of treating cancer using dithiocarbamate derivatives” (Charlotte-Mecklenburg Hospital Authority, priority 1998, dated 2003)
